Here are results for 9 compounds from patent publication US20260325685A1, “Radiopharmaceutical Compositions Targeting Carbonic Anhydrase IX and Uses Thereof” (RayzeBio, Inc., priority 2023, published 2026).

Read-outs that look alike come from different tables or passages of the source.

What is called Kd is the constant that tells how readily two partners part at equilibrium.

The target of one test is T1, human CA-IX (Homo sapiens, UniProt Q16790).
T1 construct: purchased Acro CA9-H82E3
The experiment in a line: Surface Plasmon Resonance (SPR) binding kinetics to recombinant human CA-IX (Biacore 8K, single-cycle kinetics, 1:1 binding model). The following applies: for Kd: SPR, 25° C., pH 7.4, read-out: CAIX KD. The method, boiled down: (§1)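 Kinetics are measured at 25° C against streptavidin-captured CA-IX or CA-XII (1200-1800 RU) in PBS-P+ buffer, pH 7.4, containing 1% DMSO. Nine analyte concentrations span 100-0.39 nM, with 1200 s dissociation.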

For a further test, the target named is T2, human CA-XII (Homo sapiens, UniProt O43570).
T2 construct: purchased Creative BioMart CA12-261H
T2 sequence (O43570 25-354): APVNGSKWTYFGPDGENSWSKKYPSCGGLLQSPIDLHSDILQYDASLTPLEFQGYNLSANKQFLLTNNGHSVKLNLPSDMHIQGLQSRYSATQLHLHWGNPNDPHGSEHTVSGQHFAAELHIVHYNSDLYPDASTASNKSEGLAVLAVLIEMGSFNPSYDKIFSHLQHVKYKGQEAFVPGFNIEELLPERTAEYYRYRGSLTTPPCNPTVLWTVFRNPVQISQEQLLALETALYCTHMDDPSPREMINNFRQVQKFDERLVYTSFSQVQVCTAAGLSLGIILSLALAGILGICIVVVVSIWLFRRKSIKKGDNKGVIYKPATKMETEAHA
The experiment in a line: Surface Plasmon Resonance (SPR) binding kinetics to recombinant human CA-XII (Biacore 8K, single-cycle kinetics, 1:1 binding model). The following applies: pH 7.4, read-out: CAXII KD. The method, boiled down:
as §1
On the technique in general: Surface plasmon resonance follows binding to a sensor surface in real time, without labels.

For the compound `CC(CCC(=O)N[C@@H](CC(=O)N[C@@H](CC(=O)N1CCN(C(=O)CN2CCN(CC(=O)O)CCN(CC(=O)O)CCN(CC(=O)O)CC2)C[C@H]1CCCCn1cc(C23CCC(C(=O)Nc4nnc(S(N)(=O)=O)s4)(CC2)C3)nn1)C(=O)O)C(=O)O)(c1ccc(O)cc1)c1ccc(O)cc1` [Compound 104.1], the Kd was under 1 nM on human CA-IX (Chelated Metal: None) and under 1 nM on human CA-XII (Chelated Metal: None, 25° C.). For the same compound, on human CA-IX (KD ratio CAXII/CAIX, Chelated Metal: None), the “Ratio (CAXII/CAIX)” value was “* (1 < * < 5)”.
Regarding `CC(CCC(=O)N[C@@H](CC(=O)N[C@@H](CC(=O)N1CCN(C(=O)CCOCCOCCOCCOCCN(CCOCCOCCOCCOCCC(=O)N2CCN(C(=O)C[C@H](NC(=O)C[C@H](NC(=O)CCC(C)(c3ccc(O)cc3)c3ccc(O)cc3)C(=O)O)C(=O)O)[C@H](C(=O)NCCn3cc(C45CC(C(=O)Nc6nnc(S(N)(=O)=O)s6)(C4)C5)nn3)C2)C(=O)CNC(=O)CN2CCN(CC(=O)O)CCN(CC(=O)O)CCN(CC(=O)O)CC2)C[C@H]1C(=O)NCCn1cc(C23CC(C(=O)Nc4nnc(S(N)(=O)=O)s4)(C2)C3)nn1)C(=O)O)C(=O)O)(c1ccc(O)cc1)c1ccc(O)cc1` [Compound 131.2], the Kd on human CA-IX (Chelated Metal: None) was under 1 nM; at human CA-XII (Chelated Metal: None, 25° C.) it was under 1 nM.
On to `CC(CCCC(=O)N1CCC(C#N)(C(=O)NCC(=O)N2CCN(C(=O)CN3CCN(CC(=O)O)CCN(CC(=O)O)CCN(CC(=O)O)CC3)C[C@@H]2C(=O)NCCn2cc(C34CC(C(=O)Nc5nnc(S(N)(=O)=O)s5)(C3)C4)nn2)CC1)(c1ccc(O)cc1)c1ccc(O)cc1.[Lu+3]` [Compound 107.31], for which the Kd on human CA-IX (Chelated Metal: Lu-175) was 1 to 2.5 nM; at human CA-XII (Chelated Metal: Lu-175, 25° C.), over 10 nM.
For `NS(=O)(=O)c1nnc(NC(=O)C23CCC(c4cn(CCNC(=O)[C@@H]5CN(C(=O)CN6CCN(CC(=O)O)CCN(CC(=O)O)CCN(CC(=O)O)CC6)CCN5C(=O)CC[C@H](NC(=O)C[C@H](NC(=O)CCC5CC5)C(=O)O)C(=O)O)nn4)(CC2)CC3)s1.[Lu+3]` [Compound 109.48] the same measures were under 1 nM and under 1 nM.
Taken in the same sequence, the figures for `NS(=O)(=O)c1nnc(NC(=O)C23CC(c4cn(CCNC(=O)[C@@H]5CN(C(=O)CN6CCN(CC(=O)O)CCN(CC(=O)O)CCN(CC(=O)O)CC6)CCN5C(=O)C[C@H](NC(=O)C[C@H](NC(=O)c5cc(C(F)(F)F)[nH]n5)C(=O)O)C(=O)O)nn4)(C2)C3)s1.[Lu+3]` [Compound 109.6] were under 1 nM and 2.5 to 10 nM.
Taken in the same sequence, the figures for `CC(CCC(=O)N[C@@H](CC(=O)N[C@@H](CC(=O)N[C@@H](CCCCn1cc(C23CCC(C(=O)Nc4nnc(S(N)(=O)=O)s4)(CC2)C3)nn1)C(=O)NCCOCCNC(=O)CCC(C(=O)O)N1CCN(CC(=O)O)CCN(CC(=O)O)CCN(CC(=O)O)CC1)C(=O)O)C(=O)O)(c1ccc(O)cc1)c1ccc(O)cc1.[Lu+3]` (stereo partly shown) [Compound 100.15] were under 1 nM and under 1 nM.
Turning to `NS(=O)(=O)c1nnc(NC(=O)C23CCC(c4cn(CCNC(=O)[C@@H]5CN(C(=O)CN6CCN(CC(=O)O)CCN(CC(=O)O)CCN(CC(=O)O)CC6)CCN5C(=O)CC[C@H](NC(=O)C[C@H](NC(=O)CCC(F)(F)F)C(=O)O)C(=O)O)nn4)(CC2)CC3)s1.[Lu+3]` [Compound 109.53], the Kd is under 1 nM at human CA-IX (Chelated Metal: Lu-175) and under 1 nM on human CA-XII (Chelated Metal: Lu-175, 25° C.).
Turning to `NCCNC(=O)c1cnc(N[C@@H](CC(=O)N2CCN(C(=O)CN3CCN(CC(=O)O)CCN(CC(=O)O)CCN(CC(=O)O)CC3)C[C@H]2C(=O)NCCn2cc(C34CC(C(=O)Nc5nnc(S(N)(=O)=O)s5)(C3)C4)nn2)C(=O)O)nc1.[Lu+3]` [Compound 111.12], the Kd on human CA-IX (Chelated Metal: Lu-175) is 2.5 to 10 nM; at human CA-XII (Chelated Metal: Lu-175, 25° C.) it was over 10 nM.
In the case of `CC(CCCC(=O)N1CCC(C(N)=O)(C(=O)NCC(=O)N2CCN(C(=O)CN3CCN(CC(=O)O)CCN(CC(=O)O)CC3)C[C@@H]2C(=O)NCCn2cc(C34CC(C(=O)Nc5nnc(S(N)(=O)=O)s5)(C3)C4)nn2)CC1)(c1ccc(O)cc1)c1ccc(O)cc1.[Cu+2]` [Compound 126.1], the Kd on human CA-IX (Chelated Metal: Cu (cold)) is under 1 nM; on human CA-XII (Chelated Metal: Cu (cold), 25° C.), over 10 nM.
